Experimental findings from ChEMBL document CHEMBL4342439, “Targeting Stimulator of Interferon Genes (STING): A Medicinal Chemistry Perspective” (J Med Chem, 2020) are described below.

The target of experiment [1] is Stimulator of interferon genes protein (Homo sapiens, UniProt Q86WV6, G230A/R293Q/R71H). The experiment is described as follows: Displacement of [3H]-cGAMP from full length STING HAQ mutant in human THP1 cells by filtration binding assay. Format: cell-based. On the technique in general: In a radioligand displacement assay an active substance lowers the binding of a labelled ligand.

In experiment [2] the target is T1, Stimulator of interferon genes protein (Homo sapiens, UniProt Q86WV6). The experiment is described as follows: Inhibition of wild type human STING by SPA assay.
Experiment [3] has as its target T1, Stimulator of interferon genes protein. The experiment in a line: Inhibition of STING in human THP1 cells by R232 IRF-luciferase reporter gene assay. The class given is cell-based. Background: Reporter assays use an easily measured gene product as a stand-in for the process of interest.
Experiment [4] has the same target. The experiment in a line: Displacement of [3H]-cGAMP from wild type human STING by filtration binding assay.
The target of experiment [5] is T2, Stimulator of interferon genes protein (Mus musculus, UniProt Q3TBT3).
T2 sequence (Q3TBT3 whole entry): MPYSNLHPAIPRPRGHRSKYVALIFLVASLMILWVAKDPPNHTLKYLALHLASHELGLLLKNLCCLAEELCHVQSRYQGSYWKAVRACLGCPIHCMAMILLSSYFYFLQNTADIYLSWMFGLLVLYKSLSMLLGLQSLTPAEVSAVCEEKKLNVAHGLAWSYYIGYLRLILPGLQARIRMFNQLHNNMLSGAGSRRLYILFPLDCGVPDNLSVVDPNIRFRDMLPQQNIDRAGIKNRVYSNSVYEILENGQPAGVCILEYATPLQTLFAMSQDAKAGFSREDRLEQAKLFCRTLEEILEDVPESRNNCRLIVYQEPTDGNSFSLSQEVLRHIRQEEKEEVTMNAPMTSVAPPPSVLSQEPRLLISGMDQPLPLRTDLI
The experiment is described as follows: Displacement of [3H]-cGAMP from mouse STING by filtration binding assay.

Experiment [6] has as its target T1, Stimulator of interferon genes protein. The experiment is described as follows: Inhibition of STING in human THP1 cells by IFN reporter gene assay. The class given is cell-based.
In experiment [7] the test system is Stimulator of interferon genes protein (Homo sapiens), Q86WV6 [R71H,G230A,R293Q]. The experiment is described as follows: Effect on full length STING HAQ mutant in human THP1 cells at 10 uM relative to 2',3- cGAMP. The class given is cell-based.
Experiment [8] addresses T1, Stimulator of interferon genes protein. The experiment in a line: Inhibition of STING in human THP1 cells. The class given is cell-based.
For experiment [9] the target is unchanged. The experiment in a line: Inhibition of STING in human THP1 cells in presence of PFO by IFN reporter gene assay. The class given is cell-based.
Experiment [10] can be described thus: Inhibition of human STING H232 mutant by SPA assay.
Experiment [11] can be described thus: Binding affinity to human STING H232 mutant by ITC assay. In general terms: Isothermal titration calorimetry measures the heat released or taken up as one component is titrated into another.
The target in experiment [12] is T1, Stimulator of interferon genes protein. The experiment is described as follows: Inhibition of STING in human THP1 cells in presence of digitonin by IFN reporter gene assay. The class given is cell-based.
The target of experiment [13] is T2, Stimulator of interferon genes protein. The experiment in a line: Binding affinity to mouse STING by ITC assay.

T1 sequence (Q86WV6 whole entry): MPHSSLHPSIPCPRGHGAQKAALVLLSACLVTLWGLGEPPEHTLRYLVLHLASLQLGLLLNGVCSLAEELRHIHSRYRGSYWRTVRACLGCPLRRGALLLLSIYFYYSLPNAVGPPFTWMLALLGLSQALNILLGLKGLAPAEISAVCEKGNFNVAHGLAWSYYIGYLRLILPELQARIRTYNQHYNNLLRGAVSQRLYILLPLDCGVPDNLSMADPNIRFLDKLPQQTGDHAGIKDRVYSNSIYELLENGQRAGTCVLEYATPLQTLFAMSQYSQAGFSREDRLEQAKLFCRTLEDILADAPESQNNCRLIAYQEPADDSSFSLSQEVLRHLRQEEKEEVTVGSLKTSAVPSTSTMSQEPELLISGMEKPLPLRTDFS
Stimulator of interferon genes protein (Homo sapiens, UniProt Q86WV6, G230A/R293Q/R71H), sequence (Q86WV6 whole entry R71H/G230A/R293Q): as the sequence (Q86WV6 whole entry) above, with R71H, G230A, R293Q counted along it
Stimulator of interferon genes protein (Homo sapiens), Q86WV6 [R71H,G230A,R293Q], sequence (Q86WV6 whole entry R71H/G230A/R293Q): as the sequence (Q86WV6 whole entry) above, with R71H, G230A, R293Q counted along it

In the case of `Nc1nc2c(ncn2[C@@H]2S[C@@H]3COP(=O)(O)O[C@H]4[C@@H](O)[C@H](n5cnc6c(N)ncnc65)O[C@@H]4COP(=O)(O)O[C@@H]2[C@@H]3O)c(=O)[nH]1`, a half-maximal effect in experiment [1] (EC50) was put at 1.2 nM.

With `NC[C@H]1[C@H]2OP(=O)(O)OC[C@H]3O[C@@H](n4cnc5c(N)ncnc54)[C@H](O)[C@@H]3OP(=O)(O)OC[C@H]1O[C@H]2n1cnc2c(=O)[nH]c(N)nc21`, the 50% effective concentration (EC50) – broadly, the concentration needed to bring the measured effect to its halfway point – in [1] was determined as 21.5 nM.

In the case of `CCn1nc(C)cc1C(=O)/N=c1\[nH]c2cc(C(N)=O)ccc2n1C[C@@H](O)c1ccccc1`, the IC50 (in general, the concentration that inhibits the measured activity by half) in experiment [2] amounted to 14000 nM.

For `COc1c(Cl)ccc2c(=O)c3ccc(C(C)(C)C)cc3n(CC(=O)O)c12`, the figures for the IC50 in [3], in experiment [4] and in [5] were greater than 50000 nM, less than 20000 nM and less than 20000 nM, respectively.

In experiment [1], `COc1cc2sc(C(=O)C[C@H](C)C(=O)O)cc2cc1Br` returned an EC50 of 2640 nM.

In experiment [1], `Nc1nc2c(ncn2[C@@H]2O[C@@H]3COP(=O)(O)O[C@H]4[C@@H](O)[C@H](n5cnc6c(N)nc(F)nc65)O[C@@H]4COP(=O)(O)O[C@@H]2[C@@H]3O)c(=O)[nH]1` displayed a concentration giving a half-maximal response (EC50) of 24.6 nM.

With `Nc1ncnc2c1ncn2[C@@H]1O[C@@H]2CO[P@@](=O)(S)O[C@@H]3C[C@@H](CO[P@@](=O)(S)O[C@H]2[C@H]1F)O[C@H]3n1cnc2c(N)ncnc21`, the concentration for a half-maximal effect (EC50) in experiment [6] was 10200 nM.

For `C=C1[C@@H](n2cnc3c(N)ncnc32)[C@H](F)[C@@H]2O[P@@](O)(=S)OC[C@H]3O[C@@H](n4cnc5c(=O)[nH]c(N)nc54)[C@H](OP(O)(=S)OC[C@@H]12)[C@@H]3F` (some centres not stated), in experiment [7], the Activity worked out at 430%. The same compound returned an EC50 in experiment [6] of 740 nM.

For `C#C[C@@H]1O[C@@H]2COP(=O)(S)O[C@H]3[C@@H](F)[C@H](n4cnc5c(N)ncnc54)O[C@@H]3COP(=O)(S)O[C@@H]1[C@@H]2O` (some centres not stated), the EC50 in [1] is less than 1 nM.

Compound `COc1cc2cc(C(=O)C[C@H](C)C(=O)O)sc2cc1Br` registered an EC50 in [1] of 894 nM.

The compound `COc1cc2cc(C(=O)CCC(=O)OC(C)(C)C)sc2cc1OC` showed a 50% effective concentration (EC50) in experiment [1] of 5990 nM.

Take `Nc1ncnc2c1ncn2[C@@H]1O[C@@H]2CNC(=S)N[C@H]3[C@@H](O)[C@H](n4cnc5c(N)ncnc54)O[C@@H]3CNC(=S)N[C@H]2[C@H]1O`: the EC50 in experiment [8] is 22200 nM.

For `BP1(=O)OC[C@H]2O[C@@H](n3cnc4c(=O)[nH]c(N)nc43)[C@H](OP(=O)(O)OC[C@H]3O[C@@H](n4cnc5c(N)ncnc54)[C@H](O)[C@@H]3O1)[C@@H]2O` (some centres not stated), the values for the half-maximal effective concentration (EC50) in experiment [9] and in experiment [6] were less than 100 nM and less than 30000 nM, respectively.

For `COc1cc2cc(C(=O)C[C@H](C)C(=O)O)sc2cc1OC`, the EC50 in experiment [1] stood at 2740 nM.

`COc1cc2sc(C(=O)C[C@H](C)C(=O)O)cc2c(F)c1OC` gave an EC50 in experiment [1] of 1380 nM.

As to `CCn1nc(C)cc1C(=O)/N=c1\[nH]c2cc(C(N)=O)cc(OC)c2n1C/C=C/Cn1/c(=N/C(=O)c2cc(C)nn2CC)[nH]c2cc(C(N)=O)cc(OCCCN3CCOCC3)c21`, in experiment [10], the EC50 amounted to 200 nM.

Regarding `BP1(=O)OC[C@H]2O[C@@H](n3cnc4c(N)ncnc43)[C@H](O)[C@@H]2OP(=O)(O)OC[C@H]2O[C@@H](n3cnc4c(=O)[nH]c(N)nc43)[C@H](O1)[C@@H]2O` (some centres not stated), the figures for the EC50 in experiment [9] and in experiment [6] were less than 100 nM and less than 30000 nM, respectively.

As for `Nc1nc2c(ncn2[C@@H]2O[C@@H]3COP(=O)(O)O[C@@H]4[C@H](O)[C@@H](COP(=O)(O)O[C@@H]2[C@@H]3O)O[C@H]4n2cnc3c(N)ncnc32)c(=O)[nH]1`, in experiment [11], binding was characterised by a dissociation constant (Kd) of 2500 nM.

Turning to `Nc1nc2c(ncn2[C@@H]2O[C@@]34CO[C@@H]2[C@@H]3O[P@](=O)(S)OC[C@@]23CO[C@@H]([C@H](n5cnc6c(N)ncnc65)O2)[C@@H]3O[P@](=O)(S)OC4)c(=O)[nH]1`, the concentration for a half-maximal effect (EC50) in experiment [12] worked out at 19300 nM.

For `COc1c(O)cc2oc3cc(O)c(CC=C(C)C)c(O)c3c(=O)c2c1CC=C(C)C` [MANGOSTIN], the affinity in [13], expressed as Kd, was 137000 nM.

`COc1cc2cc(C(=O)CCC(=O)O)sc2cc1OC` returned a concentration giving a half-maximal response (EC50) in [1] of 1720 nM.

`CCn1nc(C)cc1C(=O)Nc1nc2cc(C(N)=O)ccc2n1CCCCn1c(NC(=O)c2cc(C)nn2CC)nc2cc(C(N)=O)ccc21` gave an IC50 in experiment [2] of 20 nM.

`Nc1ncnc2c1ncn2[C@@H]1O[C@@H]2CNC(=O)N[C@H]3[C@@H](O)[C@H](n4cnc5c(N)ncnc54)O[C@@H]3CNC(=O)N[C@H]2[C@H]1O` displayed an EC50 in experiment [8] of 25400 nM.

In experiment [1], `COc1cc2sc(C(=O)C[C@H](C)C(=O)O)cc2c2nc(C)oc12` registered a concentration for a half-maximal effect (EC50) of 531 nM.

Consider `CCC[C@H]1[C@H]2OP(=O)(O)OC[C@H]3O[C@@H](n4cnc5c(N)ncnc54)[C@H](O)[C@@H]3OP(=O)(O)OC[C@H]1O[C@H]2n1cnc2c(=O)[nH]c(N)nc21`, for which the 50% effective concentration (EC50) in experiment [9] was no more than 30000 nM; in experiment [6], no more than 100 nM.

`Nc1nc2c(nnn2[C@@H]2O[C@@H]3COP(=O)(O)O[C@H]4[C@@H](O)[C@H](n5cnc6c(N)ncnc65)O[C@@H]4COP(=O)(O)O[C@@H]2[C@@H]3O)c(=O)[nH]1`: the concentration for a half-maximal effect (EC50) in experiment [1] is less than 1 nM.

On to `Nc1ncnc2c1ncn2[C@@H]1O[C@@H]2CO[P@@](=O)(S)O[C@@H]3[C@H](F)[C@@H](CO[P@@](=O)(S)O[C@H]2[C@H]1O)O[C@H]3n1cnc2c(N)ncnc21`, for which the EC50 in [6] worked out at 11200 nM; in [12], 399 nM.

On to `COc1cc2cc(C(=O)CC(C)C(=O)O)sc2cc1OC` (configuration not stated), for which the concentration for a half-maximal effect (EC50) in experiment [1] was found to be 5550 nM.

`COc1cc2cc(C(=O)CC(C(=O)O)C(C)C)sc2cc1OC` (configuration not stated) yielded a concentration for a half-maximal effect (EC50) in [1] of 9590 nM.

On to `Nc1ncnc2c1ncn2[C@@H]1O[C@@H]2CO[P@@](=O)(S)O[C@@H]3[C@H](F)[C@@H](CO[P@@](=O)(S)O[C@H]2[C@H]1F)O[C@H]3n1cnc2c(N)ncnc21`, for which the EC50 in [6] is 4500 nM; in [12] it was 190 nM.

`Nc1nc2c(ncn2[C@@H]2O[C@@H]3COP(=O)(O)O[C@H]4[C@@H](O)[C@H](n5cnc6c(N)nc(F)nc65)O[C@@H]4COP(=O)(O)O[C@@H]2[C@@H]3O)c(=S)[nH]1`: in experiment [1], the concentration for a half-maximal effect (EC50) amounted to 1.7 nM.

Compound `COc1cc2sc(C(=O)[C@H]3C[C@H]3C(=O)O)cc2c(F)c1OC` returned an EC50 in experiment [1] of 17800 nM.

`COc1cc2sc(C(=O)[C@@H]3C[C@@H]3C(=O)O)cc2c(F)c1OC` registered an EC50 in [1] of 599 nM.

On to `Nc1nc2c(ncn2[C@@H]2O[C@@H]3CO[P@@](=O)(S)O[C@H]4[C@H]5OC[C@]4(CO[P@@](=O)(S)O[C@H]3[C@H]2O)O[C@H]5n2cnc3c(N)ncnc32)c(=O)[nH]1`, for which, in experiment [12], the 50% effective concentration (EC50) is 5800 nM.
